Source: US20220096431A1, “PHARMACEUTICAL COMPOSITION AND METHOD FOR PREVENTING, TREATING AND DIAGNOSING A NEURODEGENERATIVE DISEASE” (BUDDHIST TZU CHI MEDICAL FOUNDATION, priority 2020, published 2022)
Entries after “also recorded” stand apart in the source; their conditions may differ.

Tests used:
3xTg AD mice [1] = test: Morris water maze test in AD-3xTg mice; format: in vivo
Protocol: Red dot, starting point of the swim; green dot, end point of the swim.
(§1) N=4 for wild-type and 10 mg/kg donepezil-treated 3xTg mice. N=6 for vehicle-treated 3xTg mice, 60 mg/kg n-BP-treated 3xTg mice, and 120 mg/kg n-BP-treated 3xTg mice. *p-value<0.05, **p-value<0.01 (Student's t-test). […] After 4-12 months, the B6 (C57/BL6) control mice have no AP accumulation (Green color).
The mice behavioral experiment using Morris water maze is a classical test to detect short-term memory and complex memory. Through its behavior, it can be determined whether there is a difference in memory after drug treatment. […] Two sessions were conducted on Day 1 as follows: (1) mice were placed in the swimming pool to adapt to the environment for a training duration of 120 seconds; (2) a hidden rest platform was added to the pool at a precise location in the northwest corner of the pool (blue diamond in the east; red circle in the west and yellow triangle in the south as shown in FIG. 7G) and the mice were allowed for to swim in the pool for a duration of another 120 seconds. If the rescue platform was not found by the mouse within the allocated time, the mouse was guided to the platform. The test for finding the rescue platform is carried out for the next four consecutive days, with each session lasting 90 seconds. The result is collected and analyzed.

[2] = tested on: miR-29b-2-5p and PSEN1 expression in Ts-21 iPSCs; test: Real-time PCR of miR-29b-2-5p and PSEN1 in Ts-21 iPSCs; format: cell-based, human; conditions: 100 μM n-BP
Excerpt: FIGS. 6A and 6B show the RT-qPCR analysis result of expression levels of miR-29b-2-5p/miR-9-5p and PSEN1/β-actin with or without […] n-BP. n=3 for each group.

3xTg AD mice [3] = test: 18F-FBB PET/CT of amyloid accumulation in the brain of 3xTg mice; format: in vivo
Protocol: as §1
FIGS. 8B and 8C show the comparison of VOI-based 18F-florbetaben SUVR(CTX/CB) and SUVR (HIP/CB) between B6 mice, vehicle-treated 3xTg transgenic, and n-BP-treated mice (60 mg/kg) aged 6 and 12 months. n=4 for B6 mice. n=5 for 3xTg mice. SUVR; standard uptake value ratio, M; months, cerebellum: CB.
The accumulation of amyloid in brain tissues can be detected by using an amyloid tracking agent, 18F-Florbetaben (FBB). 18F-FBB positron emission tomography-computed tomography (PET/CT) was used to explore the effect of n-BP treatment on AP accumulation in the hippocampus and cortex. The accumulation of amyloid will appear red in the picture. The quantity and location of AP accumulation in the brains of mice were determined using the tracking reagent 18F-FBB from birth to 4 to 12 months of age.

3xTg transgenic mice = test: Amyloid accumulation in the brain of 3xTg transgenic mice, single and combined treatment (FIG. 11); format: in vivo; conditions: 3xTg mice; 60 mg/kg n-butylidenephthalide, 200 mg/kg vitamin C, alone or combined; vs olive oil control
[4] = tested on: PSEN-1, PSEN-2, Aβ1-42 and NICD in C6-C99 cells; test: Western blotting of amyloid-related proteins in C6-C99 cells; format: cell-based; conditions: C6-C99 cells
Excerpt: FIG. 3B to FIG. 3E are the quantitative results of the Western blotting analysis of PSEN-1, PSEN-2, β-amyloid 1-42 (Aβ1-42) and NICD in FIG. 3A, respectively (p*<0.05, p**<0.01). The C6-C99 cells used in FIGS. 3A to 3E are glioma cells having a fragment of human amyloid precursor protein (APP). This fragment is a peptide fragment with 99 amino acids (APP-C99), which can express large amounts of PSEN-1, PSEN-2, and Aβ 1-42 after activation by cumate.
Western blotting is used to detect the expression levels of amyloid-related proteins, including PSEN-1, PSEN-2, and β-amyloid 1-42 (Aβ1-42), while simultaneously detect the expression level of Notch protein (Notch intracellular domain, NICD), which is an indicator of drug safety. If the Notch protein is not affected, then drug safety is indicated.
APP-C99 was transfected into C6 cells with the C99 peptide through cumate-inducible system activation.

C6-C99 cells = test: Flow cytometry of C6-C99 cells (cumate-induced fluorescence); format: cell-based; conditions: 100 μM n-BP
Protocol: Red peak, fluorescence of C6-C99 cells without cumate activation (background). Green peak, with cumate. Blue peak, with n-BP.
(§2) Then, C6-C99 cells were used to explore the effect of 100 μM n-butylidenephthalide (n-BP) on the expressions of miR-29b-2-5p, PSEN1, and Aβ1-42. […] Also shown in FIGS. 4G to 4I are the results of using miR-29b-2-5p inhibitor to evaluate whether n-BP inhibited PSEN1 and Aβ1-42 expression through miR-29b-2-5p. Specifically, miR-29b-2-5p inhibitor was transfected into C6-C99 cells and examined the inhibitory effect of n-BP treatment on PSEN1 and Aβ1-42 expression. It was observed that the addition of the miR-29b-2-5p inhibitor to C6-C99 cells abolished the 100 μM n-BP induced decrease in PSEN1 and Aβ1-42 expression.

3xTg AD mice [5] = test: Immunostaining with Aβ1-42 antibody of brain sections; format: in vivo
Protocol: FIGS. 8D and 8E show the result of immunostaining with Aβ1-42 antibody to detect amyloid deposition in the brain. Brain sections were selected at −2.2 mm posterior to bregma. Red dot indicated Aβ1-42 plaque accumulation. n=5 for B6 mice and 3xTg-60 mg/kg n-BP group. n=4 for 3xTg vehicle group. n=6 for […]. Scale bars represent 1 mm. *p-value<0.05, **p-value<0.01 (Student's t-test).
It was observed that AP accumulation was absent in the hippocampus of B6 mice but present in that of 3xTg AD mice. […] Specifically, immunostaining was used to detect Aβ1-42 accumulation in the hippocampus of 14-month-old 3xTg AD mice.

SH-SY5Y = test: Aβ1-42 poisoning experiment in SH-SY5Y cells (MTT); format: cell-based, human; conditions: n-butylidenephthalide 100 μM, vitamin C 200 μM, alone or in combination, Aβ1-42 1 μM
Excerpt: Then, the cell viability is detected by a cell survival test using (3-(4,5-dimethylthiazol-2-yl)-2,5-diphenyltetrazolium bromide (MTT) assay.

[6] = tested on: miR-29b-2-5p expression in C6-C99 cells; test: RT-qPCR of miR-29b-2-5p/miR-9-5p in C6-C99 cells; format: cell-based; conditions: 100 μM n-BP
Protocol: as §2

CCCC=C1OC(=O)c2ccccc21 [n-BP, n-butylidenephthalide]
Movement trajectory (3xTg AD mice [1]; 120 mg n-BP/kg vs 60 mg n-BP/kg): shorter movement trajectory | Locating and arriving at the resting platform (3xTg AD mice [1]; 120 mg/kg n-BP, donepezil as positive control): able to quickly locate and arrive at the resting platform | Finding the rest platform after training (3xTg AD mice [1]; 60 and 120 mg n-BP/kg): could find the rest platform after training | Time required to find the platform (3xTg AD mice [1]; Day 5, 120 mg/kg n-BP, 10 mg donepezil/kg, vs untreated 3xTg mice): significantly lower | Expression levels of other AD-related genes BACE1, PSEN2, APOE3 and APOE4 [2]: without significant difference | PSEN1 expression (real-time PCR) [2]: 58.10%±29.28% | miR-29b-2-5p expression [2]: 12.38 fold | Standardized uptake value ratio (SUVR) of FBB in the hippocampus and cortex (3xTg AD mice [3]; 120 mg n-BP/kg, age 12 months vs age 6 months): significantly lower | Aβ accumulation in hippocampus and cortex (18F-FBB PET/CT) (3xTg AD mice [3]; 3xTg AD mice, oral n-BP 60 or 120 mg/kg): less AP accumulation; also recorded: low levels of amyloid accumulation | Therapeutic effect on accumulation of amyloid in the brain (3xTg transgenic mice): significantly improved therapeutic effect | Aβ1-42 expression ([4]; 100 μM n-BP): 40.53%±28.46% | PSEN1 expression ([4]; 100 μM n-BP): 37.33%±23.1% | Aβ1-42 expression ([4]; 100 μM, FIG. 3): significantly reduced | Notch protein (NICD) expression, indicator of drug safety ([4]; 100 μM, FIG. 3): not affected | PSEN-1 expression ([4]; 100 μM, FIG. 3): significantly reduced | PSEN-2 expression ([4]; 100 μM, FIG. 3): significantly reduced | Cumate expression / fluorescence of C6-C99 cells (C6-C99 cells): did not affect; also recorded: does not affect the fluorescence of C6-C99 | Aβ accumulation in the hippocampus (Aβ1-42 antibody) (3xTg AD mice [5]; 3xTg AD mice, either dose of n-BP (60 or 120 mg/kg)): significantly decreased | Aβ1-42 accumulation in the brain (immunostaining) (3xTg AD mice [5]; 14-month-old 3xTg AD mice, 120 mg n-BP/kg, vs vehicle): significantly reduced | Cell survival, protection against Aβ1-42 damage (SH-SY5Y): has an effect on increasing cell survival | miR-29b-2-5p expression [6]: 358.95%±24.74%
